The values that follow are results of earlier work, collected in US8916612B2, “Agmatine containing dietary supplements, nutraceuticals, and foods” (priority 2008, dated 2014).

The series has as its system mice, rats, dogs, calves and monkeys. As to conditions: variable dose ranges and regimens; cited from earlier work.

Structures are written as SMILES.

Take `N=C(N)NCCCCN` [agmatine]: the “Toxic effects during or after oral intake” value is on record as “No toxic effects”.
